Data published in US7049071B2, “Detection of DNA damaging agents” (University of Manchester Institute of Science and Technology, priority 1997, dated 2006).
Where “and” joins values, the source holds several entries; their conditions need not be identical. Equal entries are not always repeated.

Assays:
Assay type in all cases: cell-based, Saccharomyces cerevisiae
RAD54 promoter [1] = assay: Specificity experiment: GFP reporter induction by agents that delay mitosis; conditions: transformed cells; concentration that inhibited cell growth to a similar extent to the MMS treatment regime
Excerpt: These experiments involved exposing transformed cells to hydroxyurea and nocodazole which can delay mitosis in different ways. Hydroxyurea interferes with DNA synthesis at two levels: it inhibits ribonucleotide reductase, so limiting the supply of precursors for DNA synthesis, and it inhibits DNA ligase, an enzyme responsible for repairing nicks (single strand breaks) in the DNA backbone. In contrast nocodazole inhibits microtubule formation and thus primarily arrests cell growth by preventing the normal segregation of chromosomes during mitosis.

RAD54 promoter [2] = assay: Fluorescence assay of yeast transformed with pWDH443 or pWDH444 (RAD54 promoter linked to S65T GFP), whole cells or cell extracts
Experimental: Light emitted by GFP at 511 nm (after excitation at 488 nm) from yeast cells transformed with pWDH443 and pWDH444 and expressing GFP was measured in a fluorimeter in the absence (controls) or presence of compounds known to induce DNA damage such as Methyl Methane Sulphonate (MMS). Samples were assayed as whole cells or as cell extracts.
Yeast strains Y485 and Y486 in haploid form or Y485/486 in diploid form were in this Example (see above).
A stationary phase culture of cells grown in SD medium was used as the inoculum source. Aliquots (30 μl) of cells were inoculated into 3 ml of SD in 15 ml test tubes. […] The tubes were incubated at 25° C. for 16 h on an orbital shaker at 120 rpm, then transferred to an ice-box whilst maintaining agitation. The cells were then transferred to 1.5 ml eppendorf tubes, harvested by centrifugation (10 s), washed twice in sterile distilled water, and resuspended in 250 μl extraction buffer.
(§1) For whole cell fluorescent measurements, the washed cells were transferred directly to cuvettes containing 2.75 ml sterile distilled water.
For cell extract studies, 100μl of 400–600nm diameter glass beads were added to the tubes of cells which were then placed in a BIO 101 Fastprep FP120 to mechanically disrupt the cells. Following centrifugation for 30 s, the supernatant was transferred to a clean tube. The pellet of beads was washed in a further 250 μl of extraction buffer and this was added to the supernatant from the previous extraction. 200 μl of the pooled extract in 300 μl of water was then transferred to a cuvette.
Fluorescence measurements were performed with a Perkin Elmer LS50 Fluorescence Spectrometer. The excitation and emission wavelengths were set to 488nm and 511 nm, respectively, with a slit width of 10 nm. To correct for variations in cell number/protein extraction efficiency, light absorption was recorded for each cuvette at either 600 nm (for whole cells) or 280 nm (for extracts). The fluorescence values obtained from the fluorometer were then divided by the absorption readings to give the “brightness value”, an arbitrary unit independent of sample concentration. Other data handling details are dealt with either in the text or in the […]

RAD54 promoter [3] = assay: Whole cell GFP fluorescence of FF18984 transformed with yEGFP-444 or pWDH444; conditions: for Brightness (BU) + MMS, average: average of three; for Brightness (BU) + MMS: single measurements
Experimental: A stationary phase culture of cells grown in SD medium was used as the inoculum source. Aliquots (30 μl) of cells were inoculated into 3 ml of SD in 15 ml test tubes. Half of the tubes were then supplemented with 0.01% MMS (the remaining tubes left as controls). The tubes were incubated at 25° C. for 16 h on an orbital shaker at 120 rpm, then transferred to an ice-box whilst maintaining agitation. The cells were then transferred to 1.5 ml eppendorf tubes, harvested by centrifugation (10 s), washed twice in sterile distilled water, and resuspended in 250 μl extraction buffer.
as §1
Fluorescence measurements were performed with a Perkin Elmer LS50 Fluorescence Spectrometer. The excitation and emission wavelengths were set to 488nm and 511 nm, respectively, with a slit width of 10 nm. To correct for variations in cell number/protein extraction efficiency, light absorption was recorded for each cuvette at either 600 nm (for whole cells) or 280 nm (for extracts). The fluorescence values obtained from the fluorometer were then divided by the absorption readings to give the “brightness value”, an arbitrary unit independent of sample concentration. Other data handling details are dealt with either in the text or in the
The assessment of GFP fluorescence in whole cells was performed essentially as described in 1.2 (above).

RAD54 promoter [4] = assay: Western blot of yeast protein extracts with anti-GFP antibody; conditions: yeast cells transformed with pWDH443 or pWDH444, induced with MMS
Excerpt: Protein extracts from untransformed yeast cells and yeast cells transformed with both pWDH443 and pWDH444 were used in a Western blot analysis using anti-GFP antibody. GFP was not detected in untransformed cells and was only detected at low levels in uninduced transformed cells.

[5] = FF18984 transformed with pWDH444, whole cells
[6] = FF18984 transformed with yEGFP-444, whole cells

Row | SMILES | Induction of the GFP reporter gene (RAD54 promoter [1]) | Time after induction at which fluorescence began to increase (RAD54 promoter [2]; 0.05% MMS) | Change in fluorescence (FIG. 10) (RAD54 promoter [2]; haploid Y486 transfected with pWDH444, cell extracts, 0.02% MMS) | Change in fluorescence (FIG. 10) (RAD54 promoter [2]; haploid Y486 transfected with pWDH444, cell extracts, 0.05% MMS) | Change in brightness relative to untransformed cells also exposed to MMS (FIG. 7) (RAD54 promoter [2]; pWDH443 transformed yeast Y485, Y486 and diploid Y485/486) | Change in fluorescence (RAD54 promoter [2]; pWDH443 transformed yeast Y485, Y486 and diploid Y485/486, 0.002% MMS) | Change in fluorescence (RAD54 promoter [2]; pWDH443 transformed yeast Y485, Y486 and diploid Y485/486, 0.01% MMS) | Change in fluorescence (FIG. 10) (RAD54 promoter [2]; untransformed Y486 cells, 0.02% MMS) | Change in fluorescence (FIG. 10) (RAD54 promoter [2]; untransformed Y486 cells, 0.05% MMS) | Brightness (BU) + MMS, average (RAD54 promoter [3]; [5]) | Brightness (BU) + MMS (RAD54 promoter [3]; [5]) | Brightness (BU) + MMS, average (RAD54 promoter [3]; [6]) | Brightness (BU) + MMS (RAD54 promoter [3]; [6]) | GFP antibody binding in Western blot (RAD54 promoter [4])
1 | NC(=O)NO [hydroxyurea] | no detectable induction of the GFP reporter gene | – | – | – | – | – | – | – | – | – | – | – | – | –
2 | COS(C)(=O)=O [MMS, Methyl Methane Sulphonate] | – | one | increase in fluorescence | increase in fluorescence | increase in brightness | statistically significant increases in fluorescence | statistically significant increases in fluorescence | no significant effect | no significant effect | average = 49 BU | 45 BU and 54 BU and 48 BU | average = 96.7 BU | 100 BU and 97 BU and 93 BU | considerable increase in GFP antibody binding
3 | COC(=O)Nc1nc2ccc(C(=O)c3cccs3)cc2[nH]1 [nocodazole] | no detectable induction of the GFP reporter gene | – | – | – | – | – | – | – | – | – | – | – | – | –
